Results on two compounds are retold here after ChEMBL document CHEMBL5126669, “Discovery of 5,7-Dihydro-6H-pyrrolo[2,3-d]pyrimidin-6-ones as Highly Selective CDK2 Inhibitors” (ACS Med Chem Lett, 2022).

Data set [1] deals with T1, Cyclin-dependent kinase 2 (Homo sapiens, UniProt P24941). As to the kind of experiment: Inhibition of CDK2 in human COV318 cells incubated for overnight in presence of human whole blood by HTRF assay. The class given is cell-based. For orientation: In TR-FRET formats the signal depends on donor and acceptor labels being close together.
Data set [2] is described as follows: Intrinsic clearance in human liver microsomes at 1 uM measured upto 30 mins by LC/MS analysis. Format: ADME, Microsome. The note with it: read-out: CLH (converted). (In general: Liver microsomes are vesicles of endoplasmic reticulum, rich in cytochrome P450 enzymes.)
Data set [3] is described as follows: Cmax in Sprague-Dawley rat at 3 mg/kg, po measured upto 24 hrs by LC-MS/MS analysis. The class given is ADME, organism-based. The note with it: in vivo. More on the design: dose 3 mg/kg, time < 24 hrs, route po.
A short description of data set [4]: AUC in Sprague-Dawley rat at 3 mg/kg, po measured upto 24 hrs by LC-MS/MS analysis. Format: ADME, organism-based. The note with it: in vivo. On the set-up: dose 3 mg/kg, time < 24 hrs, route po.
The nature of data set [5]: Oral bioavailability in Sprague-Dawley rat at 3 mg/kg measured upto 24 hrs by LC-MS/MS analysis. The class given is ADME, organism-based. The note with it: in vivo.
Data set [6] is described as follows: Hepatic blood flow in Sprague-Dawley rat at 0.5 mg/kg, iv measured upto 24 hrs by LC-MS/MS analysis. The note with it: in vivo. Format: ADME, organism-based.
A short description of data set [7]: Volume of distribution at steady state in Sprague-Dawley rat at 0.5 mg/kg, iv measured upto 24 hrs by LC-MS/MS analysis. The class given is ADME, organism-based. As to conditions: in vivo, iv, 0.5 mg/kg, 24 h; call rule not given here.
A short description of data set [8]: Metabolic stability in Sprague-Dawley rat liver microsomes assessed as compound oxidation at 5 uM measured upto 30 mins by HPLC/MS analysis. Format: ADME, Microsome. The note with it: 0.5 h.
A short description of data set [9]: Metabolic stability in Sprague-Dawley rat liver microsomes assessed as compound demethylation at 5 uM measured upto 30 mins by HPLC/MS analysis. Format: ADME, Microsome. The note with it: 0.5 h.
Data set [10] in a line: Metabolic stability in Sprague-Dawley rat liver microsomes assessed as remaining parent compound at 5 uM measured upto 30 mins by HPLC/MS analysis. Format: ADME, Microsome. The note with it: 0.5 h.
The nature of data set [11]: Metabolic stability in Cynomolgus monkey liver microsomes assessed as compound oxidation at 5 uM measured upto 30 mins by HPLC/MS analysis. Format: ADME, Macaca fascicularis, Microsome. The note with it: 0.5 h.
A short description of data set [12]: Metabolic stability in Cynomolgus monkey liver microsomes assessed as compound demethylation at 5 uM measured upto 30 mins by HPLC/MS analysis. Format: ADME, Macaca fascicularis, Microsome. As to conditions: 0.5 h.
The nature of data set [13]: Metabolic stability in Cynomolgus monkey liver microsomes assessed as remaining parent compound at 5 uM measured upto 30 mins by HPLC/MS analysis. Format: ADME, Macaca fascicularis, Microsome. As to conditions: 0.5 h.
A short description of data set [14]: Metabolic stability in human liver microsomes assessed as compound oxidation at 5 uM measured upto 30 mins by HPLC/MS analysis. Format: ADME, Microsome. As to conditions: liver microsomes, read-out: Drug metabolism.
Data set [15] in a line: Metabolic stability in human liver microsomes assessed as compound demethylation at 5 uM measured upto 30 mins by HPLC/MS analysis. As to conditions: 0.5 h. The class given is ADME, Microsome.
Data set [16] in a line: Metabolic stability in human liver microsomes assessed as remaining parent compound at 5 uM measured upto 30 mins by HPLC/MS analysis. Format: ADME, Microsome. As to conditions: liver microsomes, read-out: Stability.
In a further data set the target is Cytochrome P450 3A4 (Homo sapiens, UniProt P08684). Kind of data set: Inhibition of CYP3A4 (unknown origin) at >25 uM. Format: ADME.
Chain of Cytochrome P450 3A4 (P08684 whole entry): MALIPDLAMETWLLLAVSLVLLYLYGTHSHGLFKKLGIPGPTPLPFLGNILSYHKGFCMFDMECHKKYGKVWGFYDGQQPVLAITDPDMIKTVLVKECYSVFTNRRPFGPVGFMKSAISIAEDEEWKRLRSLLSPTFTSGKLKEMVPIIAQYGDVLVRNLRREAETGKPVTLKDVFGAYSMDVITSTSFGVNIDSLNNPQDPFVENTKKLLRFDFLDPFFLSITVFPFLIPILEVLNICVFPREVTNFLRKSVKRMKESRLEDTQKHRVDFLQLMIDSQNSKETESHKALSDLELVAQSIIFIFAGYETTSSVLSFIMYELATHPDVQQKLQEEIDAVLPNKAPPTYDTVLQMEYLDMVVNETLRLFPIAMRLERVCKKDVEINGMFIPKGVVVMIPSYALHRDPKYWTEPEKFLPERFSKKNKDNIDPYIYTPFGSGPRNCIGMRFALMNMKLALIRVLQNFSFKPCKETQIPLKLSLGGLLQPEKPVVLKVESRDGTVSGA
A further data set addresses hERG (KCNH2) (Homo sapiens, UniProt Q12809). Kind of data set: Displacement of [3H]Dofetilide from human ERG at 10 uM incubated for 24 hrs by filter binding assay relative to control. The class given is toxicity. The note with it: probe [3H]dofetilide.
The next data set deals with T2, Cytochrome P450 1A2 (Homo sapiens, UniProt P05177).
T2 sequence (P05177 whole entry): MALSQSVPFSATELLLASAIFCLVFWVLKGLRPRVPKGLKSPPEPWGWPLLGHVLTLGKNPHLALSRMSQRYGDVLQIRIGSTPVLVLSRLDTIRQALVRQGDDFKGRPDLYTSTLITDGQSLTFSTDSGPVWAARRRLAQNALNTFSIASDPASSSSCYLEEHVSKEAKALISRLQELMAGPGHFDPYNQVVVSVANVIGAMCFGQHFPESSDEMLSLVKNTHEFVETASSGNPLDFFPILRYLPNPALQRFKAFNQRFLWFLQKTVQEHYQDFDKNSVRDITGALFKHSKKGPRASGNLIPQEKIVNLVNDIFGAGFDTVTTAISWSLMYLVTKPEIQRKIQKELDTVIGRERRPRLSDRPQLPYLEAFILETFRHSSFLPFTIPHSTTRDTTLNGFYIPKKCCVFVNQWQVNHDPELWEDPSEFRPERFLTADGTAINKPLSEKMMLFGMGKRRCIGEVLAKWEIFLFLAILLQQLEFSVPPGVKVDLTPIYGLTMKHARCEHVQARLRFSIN
As to the kind of experiment: Inhibition of CYP1A2 (unknown origin) at >25 uM. Format: ADME.

The target of another data set is T3, Cytochrome P450 2C8 (Homo sapiens, UniProt P10632).
T3 sequence (P10632 whole entry): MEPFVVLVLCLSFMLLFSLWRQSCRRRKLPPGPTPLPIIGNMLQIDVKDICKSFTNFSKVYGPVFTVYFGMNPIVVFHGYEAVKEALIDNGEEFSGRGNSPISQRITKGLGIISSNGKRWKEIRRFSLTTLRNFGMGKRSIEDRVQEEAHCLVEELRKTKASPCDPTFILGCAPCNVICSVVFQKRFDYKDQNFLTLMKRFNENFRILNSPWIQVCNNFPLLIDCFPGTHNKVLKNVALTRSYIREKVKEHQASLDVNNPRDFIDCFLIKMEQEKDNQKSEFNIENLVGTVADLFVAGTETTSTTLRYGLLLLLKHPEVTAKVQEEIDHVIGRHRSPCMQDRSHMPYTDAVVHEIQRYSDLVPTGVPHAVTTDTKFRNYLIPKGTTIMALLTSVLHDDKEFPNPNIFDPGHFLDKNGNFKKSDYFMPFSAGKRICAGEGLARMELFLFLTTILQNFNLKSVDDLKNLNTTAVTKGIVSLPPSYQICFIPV
Kind of data set: Inhibition of CYP2C8 (unknown origin) at >25 uM. The class given is ADME.

The target of the next data set is Cytochrome P450 2C19 (Homo sapiens, UniProt P33261). As to the kind of experiment: Inhibition of CYP2C19 (unknown origin) at >25 uM. Format: ADME.
Chain of Cytochrome P450 2C19 (P33261 whole entry): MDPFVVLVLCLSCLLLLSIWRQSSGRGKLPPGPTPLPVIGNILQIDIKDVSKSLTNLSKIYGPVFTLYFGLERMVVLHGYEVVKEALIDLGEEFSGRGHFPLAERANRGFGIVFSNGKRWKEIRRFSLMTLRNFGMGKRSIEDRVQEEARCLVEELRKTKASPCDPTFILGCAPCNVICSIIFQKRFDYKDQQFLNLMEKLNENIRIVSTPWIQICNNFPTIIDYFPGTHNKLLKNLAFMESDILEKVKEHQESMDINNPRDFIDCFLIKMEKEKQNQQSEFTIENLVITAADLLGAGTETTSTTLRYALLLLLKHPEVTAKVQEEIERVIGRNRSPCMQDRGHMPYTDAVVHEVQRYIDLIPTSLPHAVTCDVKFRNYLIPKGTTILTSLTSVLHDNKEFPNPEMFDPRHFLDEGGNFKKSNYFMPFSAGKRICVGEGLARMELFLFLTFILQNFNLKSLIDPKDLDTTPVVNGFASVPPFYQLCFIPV
The next data set concerns the target T4, Cytochrome P450 2B6 (Homo sapiens, UniProt P20813).
T4 sequence (P20813 whole entry): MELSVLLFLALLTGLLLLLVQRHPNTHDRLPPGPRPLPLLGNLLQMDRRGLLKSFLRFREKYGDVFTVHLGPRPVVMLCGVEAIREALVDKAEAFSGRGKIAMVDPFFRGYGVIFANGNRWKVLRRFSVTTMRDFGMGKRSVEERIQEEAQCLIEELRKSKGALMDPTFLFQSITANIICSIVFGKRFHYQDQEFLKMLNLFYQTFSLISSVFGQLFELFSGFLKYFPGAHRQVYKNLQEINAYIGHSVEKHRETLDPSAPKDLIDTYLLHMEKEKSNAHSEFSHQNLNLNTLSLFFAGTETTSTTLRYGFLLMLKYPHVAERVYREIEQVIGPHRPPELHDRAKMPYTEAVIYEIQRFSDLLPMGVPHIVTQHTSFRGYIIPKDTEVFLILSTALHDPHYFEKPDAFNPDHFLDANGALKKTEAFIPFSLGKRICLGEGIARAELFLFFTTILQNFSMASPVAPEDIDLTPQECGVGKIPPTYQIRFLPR
As to the kind of experiment: Inhibition of CYP2B6 (unknown origin) at >25 uM. The class given is ADME.

The next data set addresses Cytochrome P450 2C9 (Homo sapiens, UniProt P11712). Kind of data set: Inhibition of CYP2C9 (unknown origin) at >25 uM. The class given is ADME.
In a further data set the target is Cytochrome P450 2D6 (Homo sapiens, UniProt P10635). As to the kind of experiment: Inhibition of CYP2D6 (unknown origin) at >25 uM. The class given is ADME.
Chain of Cytochrome P450 2D6 (P10635 whole entry): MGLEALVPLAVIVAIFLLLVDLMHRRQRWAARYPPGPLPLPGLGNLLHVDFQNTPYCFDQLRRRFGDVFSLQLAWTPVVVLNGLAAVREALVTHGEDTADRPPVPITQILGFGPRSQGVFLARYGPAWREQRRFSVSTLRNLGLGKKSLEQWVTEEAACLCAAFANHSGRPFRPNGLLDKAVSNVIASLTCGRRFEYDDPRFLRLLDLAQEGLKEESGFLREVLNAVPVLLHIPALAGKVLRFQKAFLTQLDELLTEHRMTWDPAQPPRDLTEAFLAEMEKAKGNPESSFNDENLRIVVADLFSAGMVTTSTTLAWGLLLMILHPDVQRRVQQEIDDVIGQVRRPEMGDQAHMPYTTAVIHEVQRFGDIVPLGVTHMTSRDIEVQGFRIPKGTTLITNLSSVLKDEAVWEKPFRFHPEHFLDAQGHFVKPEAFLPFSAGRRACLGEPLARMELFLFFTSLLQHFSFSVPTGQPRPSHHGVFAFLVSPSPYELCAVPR
A short description of data set [17]: Solubility of compound. The class given is physicochemical.
In data set [18] the target is Cyclin-dependent kinase 2/cyclin E1 (Homo sapiens, UniProt P24941). Kind of data set: Inhibition of recombinant human N-terminal GST-tagged full-length CDK2/Flag-tagged cyclinE1 expressed in baculovirus expression system using eIF4E-binding protein-1 peptide as substrate incubated for 1 hr in presence of ATP by HTRF assay.
In data set [19] the target is T1, Cyclin-dependent kinase 2. As to the kind of experiment: Inhibition of CDK2 in human COV318 cells incubated for overnight in presence of phospho-Rb by HTRF assay. Format: cell-based.
Data set [20] deals with Cyclin-dependent kinase 1 (Homo sapiens, UniProt P06493). Kind of data set: Inhibition of CDK1 in human OVCAR3 cells incubated for 30 mins in presence of pNPM T199 by western blot analysis. Format: cell-based, OVCAR-3. For orientation: In western blotting, separated proteins are transferred to a membrane and probed.
Chain of Cyclin-dependent kinase 1 (P06493 whole entry): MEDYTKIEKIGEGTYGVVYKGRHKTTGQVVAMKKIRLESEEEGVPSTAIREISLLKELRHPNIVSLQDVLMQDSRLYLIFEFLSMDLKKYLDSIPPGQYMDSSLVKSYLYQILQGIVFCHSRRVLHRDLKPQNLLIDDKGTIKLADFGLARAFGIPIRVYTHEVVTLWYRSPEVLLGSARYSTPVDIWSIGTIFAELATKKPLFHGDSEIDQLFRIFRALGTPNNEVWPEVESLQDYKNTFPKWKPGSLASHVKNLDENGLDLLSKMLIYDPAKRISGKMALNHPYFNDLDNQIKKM
For data set [21], the species on record is Homo sapiens. As to the kind of experiment: Selectivity ratio of IC50 for inhibition of CDK1 in human OVCAR3 cells to IC50 for inhibition of CDK2 in human COV318 cells. Format: cell-based.
The species entered for data set [22] is Homo sapiens. As to the kind of experiment: Selectivity ratio of IC50 for inhibition of CDK1/cyclin B (unknown origin) to IC50 for inhibition recombinant human N-terminal GST-tagged full-length CDK2/Flag-tagged cyclinE1 expressed in baculovirus expression system.
For data set [23], the species on record is Homo sapiens. Kind of data set: Selectivity ratio of IC50 for inhibition of CDK4/cyclin D1 (unknown origin) to IC50 for inhibition recombinant human N-terminal GST-tagged full-length CDK2/Flag-tagged cyclinE1 expressed in baculovirus expression system.
The species named for data set [24] is Homo sapiens. As to the kind of experiment: Selectivity ratio of IC50 for inhibition of CDK6/cyclin D1 (unknown origin) to IC50 for inhibition recombinant human N-terminal GST-tagged full-length CDK2/Flag-tagged cyclinE1 expressed in baculovirus expression system.

Chain of hERG (KCNH2) (Q12809 whole entry): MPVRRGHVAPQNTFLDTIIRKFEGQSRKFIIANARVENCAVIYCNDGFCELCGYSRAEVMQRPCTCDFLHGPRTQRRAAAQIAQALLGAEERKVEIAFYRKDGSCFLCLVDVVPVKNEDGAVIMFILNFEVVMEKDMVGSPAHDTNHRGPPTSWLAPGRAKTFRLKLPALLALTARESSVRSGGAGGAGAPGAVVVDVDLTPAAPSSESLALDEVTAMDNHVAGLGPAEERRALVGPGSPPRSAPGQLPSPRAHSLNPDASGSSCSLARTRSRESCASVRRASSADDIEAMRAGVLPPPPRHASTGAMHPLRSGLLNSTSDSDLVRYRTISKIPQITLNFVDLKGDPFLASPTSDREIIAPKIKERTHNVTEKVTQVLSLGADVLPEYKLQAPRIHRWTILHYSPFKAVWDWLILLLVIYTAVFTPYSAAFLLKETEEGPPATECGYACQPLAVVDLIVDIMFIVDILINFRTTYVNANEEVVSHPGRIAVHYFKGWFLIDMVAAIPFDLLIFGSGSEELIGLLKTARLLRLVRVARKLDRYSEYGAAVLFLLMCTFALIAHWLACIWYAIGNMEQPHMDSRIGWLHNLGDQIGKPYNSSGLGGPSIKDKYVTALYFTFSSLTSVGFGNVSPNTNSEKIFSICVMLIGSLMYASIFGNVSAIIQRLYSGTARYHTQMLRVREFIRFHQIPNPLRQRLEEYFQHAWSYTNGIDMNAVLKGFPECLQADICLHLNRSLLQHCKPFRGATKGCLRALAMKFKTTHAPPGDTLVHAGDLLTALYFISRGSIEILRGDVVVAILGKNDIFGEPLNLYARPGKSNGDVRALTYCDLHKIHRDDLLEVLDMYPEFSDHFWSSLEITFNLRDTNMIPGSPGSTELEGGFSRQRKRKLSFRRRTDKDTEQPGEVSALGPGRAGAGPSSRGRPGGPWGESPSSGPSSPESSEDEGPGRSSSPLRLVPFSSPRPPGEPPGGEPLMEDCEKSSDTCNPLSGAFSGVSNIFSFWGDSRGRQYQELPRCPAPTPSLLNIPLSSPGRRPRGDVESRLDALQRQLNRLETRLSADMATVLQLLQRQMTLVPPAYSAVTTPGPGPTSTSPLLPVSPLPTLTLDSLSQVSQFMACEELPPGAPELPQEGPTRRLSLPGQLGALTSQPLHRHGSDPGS
Chain of Cytochrome P450 2C9 (P11712 whole entry): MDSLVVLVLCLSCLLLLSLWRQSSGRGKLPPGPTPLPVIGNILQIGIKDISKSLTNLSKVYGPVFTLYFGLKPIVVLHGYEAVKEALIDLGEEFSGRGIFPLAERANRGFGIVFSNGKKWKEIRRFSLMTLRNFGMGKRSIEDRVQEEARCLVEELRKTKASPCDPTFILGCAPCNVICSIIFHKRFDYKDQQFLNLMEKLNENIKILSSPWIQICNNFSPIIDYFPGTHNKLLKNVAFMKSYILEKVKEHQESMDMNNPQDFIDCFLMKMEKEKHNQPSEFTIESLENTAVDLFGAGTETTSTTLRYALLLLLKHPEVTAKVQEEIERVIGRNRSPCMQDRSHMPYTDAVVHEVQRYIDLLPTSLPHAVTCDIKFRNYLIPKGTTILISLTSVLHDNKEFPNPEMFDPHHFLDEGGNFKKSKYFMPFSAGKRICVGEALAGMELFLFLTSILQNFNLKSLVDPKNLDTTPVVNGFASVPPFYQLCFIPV

`[2H]C([2H])([2H])NS(=O)(=O)c1ccc(Nc2ncc3c(n2)N([C@@H]2CCC[C@@]2(C)O)C(=O)C32CC2)cc1` (relative stereo): the IC50 in [1] is 746 nM. In addition, the predicted hepatic clearance at 1 µM in data set [2] was less than 8.33 mL/min/kg. This compound also registered a Cmax in [3] of 752 nM. In [4], this compound showed an AUC at 24 h of 0.666 µM·h. In data set [5], this compound displayed a bioavailability of 92%. The compound also displayed a QH in [6] greater than 100%. In [7], this compound displayed a Vdss of 3.2 L/kg. Further, the Drug metabolism is recorded as 54% in data set [8]; 23% in data set [9]; 12% in data set [11]; 71% in data set [12]; 10% in data set [15]. Besides, the figures for the Stability in [10] and in [13] were 4.4% and 20%, respectively. For the same compound, the metabolised at 0.5 h, 5 µM in data set [14] turned out to be 5%. The remaining at 0.5 h, 5 µM in data set [16] was determined as 85%. For the same compound, the “inhibition (INH)” value on Cytochrome P450 3A4, against Cytochrome P450 1A2, at Cytochrome P450 2C8, against Cytochrome P450 2C19, against Cytochrome P450 2B6 and on Cytochrome P450 2C9 was “Active” each time. Also, the “inhibition (INH)” value on Cytochrome P450 2D6 is recorded as “Active”. Besides, at hERG (KCNH2), the inhibition at 24 h, 10 µM stood at 16%. In data set [17], the solubility was greater than 400 µg/mL.
As for `NS(=O)(=O)c1ccc(Nc2ncc3c(n2)N(C2CCCC2)C(=O)C32CC2)cc1`, the 50% inhibitory concentration (IC50) in [18] amounted to 4 nM; in [19], 4.9 nM; in data set [20] it was 1200 nM; in [1] it was 7600 nM. Also, the Ratio IC50 in the data set listed under Homo sapiens [21] stood at 245; in the data set listed under Homo sapiens [22], 250; in the data set filed under Homo sapiens [23] it was 5; in the data set filed under Homo sapiens [24], 7. Further, in data set [2], the predicted hepatic clearance at 1 µM is 13.3 mL/min/kg.

The IC50 is the concentration at which inhibition is half-maximal. By Cmax is commonly meant the highest concentration seen after dosing. In general, AUC refers to the area under the concentration-time curve, a measure of exposure. One may read the bioavailability as the share of a dose that reaches the circulation, judged against a reference dose that is usually intravenous. The Vdss is a proportionality between amount in the body and measured concentration, not a real space. A word on the inhibition: it is the change of the read-out against control, counted positive when it falls. For orientation: solubility means the concentration that dissolves in the medium under given conditions.
